{"source": "paper PMC7037682", "about": "“Herb–Drug Interaction of Red Ginseng Extract and Ginsenoside Rc with Valsartan in Rats” (Molecules, 2020)", "key": {"[1]": {"target": "T1, OCT2 (Homo sapiens, UniProt O15244)", "T1 sequence (O15244 1-555)": "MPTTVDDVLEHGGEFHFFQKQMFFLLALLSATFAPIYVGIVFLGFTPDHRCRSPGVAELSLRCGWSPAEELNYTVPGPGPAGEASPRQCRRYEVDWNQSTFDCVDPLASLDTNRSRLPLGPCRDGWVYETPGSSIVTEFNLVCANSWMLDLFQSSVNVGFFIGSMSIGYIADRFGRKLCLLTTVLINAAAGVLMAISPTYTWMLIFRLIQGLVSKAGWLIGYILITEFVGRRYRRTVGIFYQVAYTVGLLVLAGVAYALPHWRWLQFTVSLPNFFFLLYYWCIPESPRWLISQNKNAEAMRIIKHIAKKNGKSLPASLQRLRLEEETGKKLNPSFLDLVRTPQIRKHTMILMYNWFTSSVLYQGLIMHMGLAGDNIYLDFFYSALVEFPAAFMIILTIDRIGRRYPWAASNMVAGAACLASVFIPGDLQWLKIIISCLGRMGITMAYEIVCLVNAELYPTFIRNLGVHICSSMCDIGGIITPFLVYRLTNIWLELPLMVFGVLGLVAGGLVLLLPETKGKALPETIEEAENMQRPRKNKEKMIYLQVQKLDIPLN", "experiment": "Inhibition of OCT2-mediated [3H]MPP+ uptake in HEK293-OCT2 cells", "description": "(§1) HEK293 cells overexpressing the OCT1, OCT2, OAT1, OAT3, OATP1B1, and OATP1B3 transporters (HEK293-OCT1, -OCT2, -OAT1, -OAT3, -OATP1B1, and -OATP1B3, respectively) and HEK293-mock cells (Corning Life Sciences; Woburn, MA, USA) were used and characterized as previously described.\n(§2) HEK293 cells overexpressing drug transporters and HEK293-mock cells were seeded in poly-D-lysine-coated 96-well plates at a density of 10^5 cells/well and were cultured in DMEM supplemented with 10% FBS, 5 mM non-essential amino acids, and 2 mM sodium butyrate in a humidified atmosphere with 8% CO2 at 37 °C.\n(§3) To examine the effects of ginsenosides and typical inhibitors on transporter activity, aliquots (100 μL) of HBSS containing the probe substrate and ginsenosides or typical inhibitors were added to the cells after aspirating pre-incubated HBSS. The concentrations and probe substrates were as follows: 0.1 μM [^3H]MPP^+ for OCT1 and OCT2, 0.1 μM [^3H]PAH for OAT1, 0.1 μM [^3H]ES for OAT3 and OATP1B1, and 0.1 μM [^3H]EG for OATP1B3. […] Then the uptake of probe substrates into HEK293-mock cells and HEK293-OCT1, -OCT2, -OAT1, -OAT3, -OATP1B1, and -OATP1B3 cells in the presence and absence of typical inhibitor or each ginsenoside with previously described concentration range was measured for 5 min. Immediately after placing the plates on ice, the cells were washed three times with 100 μL of ice-cold HBSS, followed by lysing with 50 μL of 10% SDS solution and mixing with 150 μL of Optiphase cocktail solution (Perkin Elmer Inc., Boston, MA, USA). The radioactivity of the probe substrates in the cells was determined using a liquid scintillation counter.\n(§4) In the inhibition studies, the uptake rate of substrate by HEK293 cells overexpressing the respective transporters was used as the control (100%) and the uptake rate of substrates in the presence of typical inhibitors or ginsenosides expressed as a percentage of the control. The inhibition data were fitted to an inhibitory effect model using Sigma plot (version 10.0; Systat Software Inc., San Jose, CA, USA). IC50 value indicated the half-maximal inhibitory concentration of the inhibitor."}, "[2]": {"target": "T2, OAT3 (Homo sapiens, UniProt Q8TCC7)", "T2 sequence (Q8TCC7 1-542)": "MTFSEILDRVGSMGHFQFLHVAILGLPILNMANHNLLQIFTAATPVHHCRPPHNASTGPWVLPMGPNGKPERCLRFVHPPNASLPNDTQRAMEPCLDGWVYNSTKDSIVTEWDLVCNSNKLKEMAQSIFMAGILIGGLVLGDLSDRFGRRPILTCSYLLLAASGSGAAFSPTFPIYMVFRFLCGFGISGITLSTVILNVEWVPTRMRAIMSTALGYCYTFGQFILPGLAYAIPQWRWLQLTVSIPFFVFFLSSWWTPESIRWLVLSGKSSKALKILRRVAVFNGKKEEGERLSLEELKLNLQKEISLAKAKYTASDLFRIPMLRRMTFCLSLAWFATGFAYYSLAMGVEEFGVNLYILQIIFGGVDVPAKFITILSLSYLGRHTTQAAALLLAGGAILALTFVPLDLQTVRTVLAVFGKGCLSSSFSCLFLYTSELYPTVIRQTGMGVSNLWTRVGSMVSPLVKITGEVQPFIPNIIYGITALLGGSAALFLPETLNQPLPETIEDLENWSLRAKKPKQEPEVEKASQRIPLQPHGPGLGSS", "experiment": "Inhibition of OAT3-mediated [3H]ES uptake in HEK293-OAT3 cells", "description": "as §1, §2, §3, §4"}, "[3]": {"experiment": "Plasma pharmacokinetics of ginsenosides in rats after 1-week repeated RGE", "conditions": "LC-MS/MS, after RGE 1.5 g/kg/day po for 1 week", "description": "The rats were randomly divided into the control and RGE groups. The RGE group received a RGE suspension (1.5 g/mL/kg/day, in distilled water) for 7 days via oral gavage. The control group received distilled water for 7 days via oral gavage. After 1 h following the last RGE treatment, valsartan was injected intravenously to both groups via the tail vein at 1 mg/mL/kg (dissolved in DMSO: saline = 2:8, v/v). […] After centrifugation of the blood samples at 16,000× g for 10 min, aliquots (50 μL each) of plasma samples were stored at −80 °C until the analysis of ginsenosides and valsartan.\nThe residue was reconstituted with 100 μL of 70% methanol consisting of 0.1% formic acid. An aliquot (20 μL) from the sample was injected into the LC-MS/MS system.\nAfter freezing the aqueous layer at −80 °C for 2 h, the upper organic layer was transferred to a clean tube and evaporated to dryness. […] An aliquot (20 μL) from the sample was injected into the LC-MS/MS system. The samples were eluted through an Omega Polar C18 column (2.1 mm × 100 mm, 3 µm particle size) (Phenomenex, Torrance, CA, USA) using a mobile phase consisting of 0.1% formic acid in water: 0.1% formic acid in methanol (15:85, v/v) at a flow rate of 0.2 mL/min.\nPharmacokinetic parameters were calculated from plasma concentration-time profile using non-compartment analysis of WinNonlin (version 5.1; Pharsights, Cary, NC, USA). The statistical significance was assessed by t-test using Statistical Package for the Social Sciences (version 24.0; SPSS Inc., Chicago, IL, USA)."}}, "data": [{"smiles": "CC(C)=CCC[C@](C)(O)[C@H]1CC[C@]2(C)[C@@H]1[C@H](O)C[C@@H]1[C@@]3(C)CC[C@H](O[C@@H]4O[C@H](CO)[C@@H](O)[C@H](O)[C@H]4O)C(C)(C)[C@@H]3CC[C@]12C", "note": "[Rh2, ginsenoside Rh2]", "values": [{"measurement": "IC50", "setting": "[1]", "result": "> 100", "unit": "µM"}, {"measurement": "IC50", "setting": "[2]", "result": "> 100", "unit": "µM"}, {"measurement": "detection in rat plasma", "setting": "[3]", "result": "not detected"}]}]}
